Ends that are not written are not given here.
Tests used:
[1] = system: IPO5 (importin β3/kap β3); assay: HCV genotype 1 peptide array probed with Huh7.5 cell lysate; format: binding; conditions: array of 15 residue peptides (8 residue overlaps), Huh7.5 lysate, anti-IPO5 antibody; a peptide bound
Protocol: (§1) However, various HCV proteins contain putative NLSs and NESs, [41], [53]. To identify potential interactions between cellular NTFs and HCV proteins, we designed a peptide array spanning the entire HCV genotype 1 consensus polyprotein sequence. These arrays were incubated with or without cell lysates and then probed using specific antibodies for components of the nuclear transport machinery. We detected binding of IPOA5 (importin α5/kap α1), IPO5 (importin β3/kap β3) and XPO1 (CRM1), but not IPO1 (importin β1/kap β1), to eleven distinct regions within HCV proteins (Fig. 1A, Table 1). All of the antibodies were also tested by western blotting of cell lysates to validate that they detected the corresponding NTF (Fig. 1B).
(§2) Figure 1 Identification of sequences within the HCV polyprotein that bind nuclear transport factors. (A) HCV genotype 1 peptide arrays consisting of 15 residue peptides (with 8 residue overlaps) spanning the complete HCV polypeptide were incubated with Huh7.5 cells lysates. Bound NTFs were detected using antibodies specific for the indicated NTF. Control peptide arrays were incubated with only NTF-specific antibodies. The different colored regions of the array represent peptides derived from different HCV proteins (see schematic). The last four peptides on the array are additional sequences which some of the HCV strains have in their polyproteins at the C terminus. (B) The same lysate used to probe the peptide arrays was also analyzed by western blotting to detect the indicated NTFs and assess the specificities of the antibodies. (C) Schematic summary of the localization of the NTF binding sites on the indicated HCV proteins.
(§3) A consensus sequence of HCV Genotype 1 polyprotein was used to design consecutive fifteen amino-acid residue peptides with eight residue overlaps along the complete polyprotein sequence. Peptides were synthesised by Intavis Bioanalytical Instruments (Koeln, Germany) using a CelluSpots peptide array synthesis technology. Peptide arrays were incubated in blocking buffer (TBS containing 0.05% tween 20 (v/v) and 10% skim milk (g/v)) overnight at 4°C on a gentle shaker. Following the blocking, the peptide arrays were washed three times with washing buffer (TBS containing 0.05% tween 20 (v/v)) for 5 min at room temperature on a gentle shaker. The peptide arrays were then incubated for 4 h with cell lysate from two T-75 flasks of fully confluent cells lysed by lysis buffer (10 mM Tris-HCl, pH 7.5, 150 mM NaCl, 2 mM EDTA, 0.1% Triton-X100, 1 mM PMSF, 2 µg/ml aprotinin, 2 µg/ml leupeptin and 0.1 units/µl RNasin) mixed with blocking buffer (ratio 1∶1 v/v) and incubated at room temperature on a gentle shaker. Following this incubation, peptide arrays were rinsed with washing buffer for 30 sec and then washed five times in washing buffer and each wash lasted for 5 min at room temperature on a gentle shaker. Following washing, the peptide arrays were incubated with the primary antibody as indicated in Fig. 1 (1∶100 dilution) for 4 h at room temperature on a gentle shaker. Arrays were then rinsed, washed as described above, and incubated with a complementary HRP conjugated secondary antibody (1∶1000) for 2 h at room temperature on a gentle shaker. The peptide arrays were then rinsed and washed as described above followed by initiation of HRP chemiluminescence with ECL detection reagent (GE Healthcare, RPN2106) and the signal was detected using Fuji RX film (Fujifilm, 47410 08399).

[2] = system: IPOA5 (importin α5/kap α1); assay: as above; format: binding; conditions: array of 15 residue peptides (8 residue overlaps), Huh7.5 lysate, anti-IPOA5 antibody; a peptide bound
Protocol: as §1, §2, §3

XPO1 (CRM1) = assay: as above; format: binding; conditions: array of 15 residue peptides (8 residue overlaps), Huh7.5 lysate, anti-XPO1 antibody; a peptide bound
Protocol: as §1, §2, §3

IPOA5 = molecular target: T1, IPOA5 (Homo sapiens, UniProt P52294); assay: biochemical; format: binding
T1 construct: Expression and purification of full length IPOA5, IPO5 were perform according to methods described previously; His tag; made in house; host or cells: Escherichia coli BL21(DE3), pET21 vector
T1 sequence (P52294 whole entry): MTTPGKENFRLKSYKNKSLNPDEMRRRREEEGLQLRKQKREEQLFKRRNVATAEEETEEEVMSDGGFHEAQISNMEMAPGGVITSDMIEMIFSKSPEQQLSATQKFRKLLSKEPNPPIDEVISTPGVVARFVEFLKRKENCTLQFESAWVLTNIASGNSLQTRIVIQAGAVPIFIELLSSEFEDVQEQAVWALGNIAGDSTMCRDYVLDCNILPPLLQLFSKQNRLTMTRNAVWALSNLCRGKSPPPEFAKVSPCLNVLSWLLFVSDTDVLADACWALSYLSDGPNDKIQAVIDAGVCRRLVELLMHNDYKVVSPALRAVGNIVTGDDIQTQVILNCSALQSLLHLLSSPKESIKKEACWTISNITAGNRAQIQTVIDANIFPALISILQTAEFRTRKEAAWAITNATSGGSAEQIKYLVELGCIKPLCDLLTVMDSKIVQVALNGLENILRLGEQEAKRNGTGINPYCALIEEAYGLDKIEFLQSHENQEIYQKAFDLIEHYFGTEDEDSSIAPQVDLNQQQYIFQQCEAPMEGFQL

IPO5 = molecular target: T2, IPO5 (Homo sapiens, UniProt O00410); assay: biochemical; format: binding
T2 construct: Expression and purification of full length IPOA5, IPO5 were perform according to methods described previously; His tag; made in house; host or cells: Escherichia coli BL21(DE3), pET21 vector
T2 sequence (O00410 whole entry): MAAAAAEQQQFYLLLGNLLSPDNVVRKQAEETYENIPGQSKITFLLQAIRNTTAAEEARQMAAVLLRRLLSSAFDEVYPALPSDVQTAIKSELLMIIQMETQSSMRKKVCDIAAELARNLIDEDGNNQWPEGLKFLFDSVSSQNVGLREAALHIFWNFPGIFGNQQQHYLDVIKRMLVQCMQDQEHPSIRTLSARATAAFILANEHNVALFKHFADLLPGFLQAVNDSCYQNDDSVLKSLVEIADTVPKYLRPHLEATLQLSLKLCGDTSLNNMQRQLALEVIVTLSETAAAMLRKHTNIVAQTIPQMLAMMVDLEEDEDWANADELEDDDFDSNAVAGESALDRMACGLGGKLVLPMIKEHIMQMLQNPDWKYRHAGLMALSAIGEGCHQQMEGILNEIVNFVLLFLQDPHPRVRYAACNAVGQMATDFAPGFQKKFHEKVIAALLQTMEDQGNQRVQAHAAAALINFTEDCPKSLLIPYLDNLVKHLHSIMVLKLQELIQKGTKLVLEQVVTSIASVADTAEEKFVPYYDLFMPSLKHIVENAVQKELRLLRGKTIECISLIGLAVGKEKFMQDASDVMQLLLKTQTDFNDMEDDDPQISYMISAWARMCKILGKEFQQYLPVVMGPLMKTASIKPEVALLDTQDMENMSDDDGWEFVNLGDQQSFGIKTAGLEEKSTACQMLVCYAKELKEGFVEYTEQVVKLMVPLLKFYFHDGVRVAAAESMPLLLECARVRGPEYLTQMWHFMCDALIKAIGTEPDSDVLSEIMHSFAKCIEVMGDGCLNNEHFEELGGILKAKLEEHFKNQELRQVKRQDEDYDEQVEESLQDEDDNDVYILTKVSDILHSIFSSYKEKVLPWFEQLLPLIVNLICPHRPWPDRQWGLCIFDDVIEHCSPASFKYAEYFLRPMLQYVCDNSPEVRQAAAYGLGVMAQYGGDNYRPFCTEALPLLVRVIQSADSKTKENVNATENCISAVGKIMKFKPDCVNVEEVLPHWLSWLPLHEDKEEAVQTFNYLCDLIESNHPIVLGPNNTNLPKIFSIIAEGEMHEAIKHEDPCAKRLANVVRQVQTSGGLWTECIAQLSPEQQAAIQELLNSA

HEK293T cells = assay: Localization of nuclear transport signal-double GFP reporter in HEK293T cells; format: cell-based; design: key: +++ for strong; ++ for moderate; + for weak; − for no localization; conditions: double GFP cargo, 24 h post transfection, fluorescence quantified with ImageJ (S6, S7 Figures); NES/SEN on SV40 NLS double GFP
From the text: To determine whether NTF binding sites found in the HCV proteins were functional nuclear transport signals, we constructed reporter proteins each consisting of one of the HCV proteins NTF binding sites followed by two C-terminal, tandemly repeated GFP molecules. The double GFP moieties were required to keep the reporter from entering the nucleus, since a single GFP is small enough to diffuse freely through NPCs, [35]. As controls, constructs containing the reversed amino-acid residue sequence of the potential NLS (SLN) were also examined using the double GFP reporter assay (S5 Figure). These SLN reporters were predicted to not accumulate in the nucleoplasm. In addition, reporters to examine the functionality of the potential XPO1 binding domains were also constructed. These reporters consist of an SV40 NLS and a double GFP molecule followed by one of the various potential NESs at the C-terminus (S5 Figure). In the absence of a functional NES, this reporter will accumulate in the nucleus. However, a functional NES is predicted to export the reporter, leading to increased steady-state levels of the reporter in the cytoplasm.
Figure 4 Functionality of the putative nuclear transport signals in cells. Cells were transfected by the vectors encoding a nuclear transport reporter consisting of a tandemly repeated double GFP fused to the indicated C-terminal nuclear transport signal (panels A-N). At 24 h following transfection, cells were fixed and stained with Hoechst to visualize the nucleus. Cells were examined using a Zeiss inverted Axiovert 200 M microscope to assess the localization of the GFP (green) and its relationship to the nucleus (blue). A hashed yellow square demarcates the magnified area shown in the right-most image of each panel. Fluorescent intensity was quantified using ImageJ v. […] Analysis of the reverse sequences of each transport signal as well as the mutant SV40 NLS was also performed and the results are shown in S7 Figure.
Nuclear transport signals-double GFP constructs were transfected into HEK293T cells using lipofectamine 2000. At 24 h post transfection cells were fixed, stained, and visualized for localization of the GFP. For detailed information see S1 Methods.
Nuclear transport signal-double GFP constructs were transfected into HEK293T cells using lipofectamine 2000 reagent (Invitrogen, 11668019). At 24 h post transfection cells were fixed with 3.76% formaldehyde at room temperature (Sigma, F8775-500ML) for 8 min then permeabilized in 0.2% Triton X-100 (VWR, CA97062-208) for 2 min. Cells were washed three times with X1 PBS and were stained with Hoechst 1:5000 in X1 PBS for 5 min followed by three washes with X1 PBS. The cells were visualized using a Zeiss inverted Axiovert 200M microscope with a 20x/0.8 objective lens to examine localization of the GFP. At least ten random fields of cells were imaged for each combination. Channels were merged using ImageJ software (National Institutes of Health). Photoshop Elements 10 (Adobe) software was used to adjust brightness and contrast levels for individual images and to assemble images into figures.

Row | Compound | Binds to IPO5 [1] | Binding to IPOA5 [2] | other results
1 | PSWGPTDPRHRSRNV [A14, HCV genotype 1 array peptide, core residues 105-119] | A14: 105-[…]-119 |  | 
2 | VPQDAVSRSQRRGRT [H18] | H18: 1481-[…]-1495 | H18: 1481-[…]-1495 | 
3 | IPKDRRSTGKAWGKP [A9, HCV genotype 1 array peptide, core residues 65-79] | A9: 65-[…]-79 | A9: 65-[…]-79 | 
4 | KVIDTLTCGFADLMG [A16, HCV genotype 1 array peptide, core residues 121-135] |  |  | Binding to XPO1 (XPO1 (CRM1)): A16: 121-[…]-135
5 | RRRTVGLSESTISEA [M4] | M4: 2329-[…]-2343 |  | 
6 | KAPTPPPRRRRTVGL [M3] | M3: 2321-[…]-2335 |  | 
7 | PRHRSRNVGKRQIKIWFQNRRMKWKK [Core NLS 4] |  |  | Kd (IPOA5): 518 ± 28.6 nM; Kd (IPO5): 105 ± 31.1 nM
8 | RHRSRNVGKVIDTLT [A15, HCV genotype 1 array peptide, core residues 113-127] | A15: 113-[…]-127 |  | 
9 | GWVIVKKEMPSFIIPRQIKIWFQNRRMKWKK [NS2 SLN] |  |  | Localization Cytoplasmic (HEK293T cells): +++; Localization Nuclear (HEK293T cells): −
10 | TLLGQCLWWLCYLLT [E10] |  |  | Binding to XPO1 (XPO1 (CRM1)): E10: 841-[…]-855
11 | SQRRGRTGRGRQGTY [H19] | H19: 1489-[…]-1503 | H19: 1489-[…]-1503 | 
12 | CC[C@H](C)[C@H](NC(=O)[C@H](CCCCN)NC(=O)[C@@H](NC(=O)[C@H](CCC(N)=O)NC(=O)[C@H](CCCNC(=N)N)NC(=O)[C@@H](NC(=O)[C@H](CCCCN)NC(=O)[C@H](CCCNC(=N)N)NC(=O)[C@H](CCCCN)NC(=O)[C@H](CCCCN)NC(=O)[C@H](CCCCN)NC(=O)[C@@H]1CCCN1)C(C)C)[C@@H](C)CC)C(=O)N[C@@H](Cc1c[nH]c2ccccc12)C(=O)N[C@@H](Cc1ccccc1)C(=O)N[C@@H](CCC(N)=O)C(=O)N[C@@H](CC(N)=O)C(=O)N[C@@H](CCCNC(=N)N)C(=O)N[C@@H](CCCNC(=N)N)C(=O)N[C@@H](CCSC)C(=O)N[C@@H](CCCCN)C(=O)N[C@@H](Cc1c[nH]c2ccccc12)C(=O)N[C@@H](CCCCN)C(=O)N[C@@H](CCCCN)C(=O)O [SV40 NLS, reference compound] |  |  | Kd (IPOA5): 27.1 ± 4.23 nM
13 | VTRNADVIPARRRGD [F23] | F23: 1137-[…]-1151 |  | 
14 | PARRRGDKRGALLSP [F24] | F24: 1145-[…]-1159 |  | 
15 | PARRRGDKRRQIKIWFQNRRMKWKK [NS3 NLS 1] |  |  | Kd (IPO5): 33.8 ± 5.6 nM
16 | TIFYQLWWILRALFLKYHPSLTLLILRQIKIWFQNRRMKWKK [NS2 SEN] |  |  | Localization Cytoplasmic (HEK293T cells): −; Localization Nuclear (HEK293T cells): +++
17 | PPPRRRRTVRQIKIWFQNRRMKWKK [NS5A NLS] |  |  | Kd (IPOA5): 7630 ± 259 nM; Kd (IPO5): 32.3 ± 4.99 nM
18 | FLLALLSCITVPVSA [A23, HCV genotype 1 array peptide, core residues 177-191] |  |  | Binding to XPO1 (XPO1 (CRM1)): A23: 177-[…]-191
19 | RKTKRNTNRRPEDVK [A2, HCV genotype 1 array peptide, core residues 9-23] | A2: 9-[…]-23 | A2: 9-[…]-23 | 
20 | QPRGRRQPIPKDRRS [A8, HCV genotype 1 array peptide, core residues 57-71] | A8: 57-[…]-71 | A8: 57-[…]-71 | 
21 | GVYLLPRRGPRLGVR [A5, HCV genotype 1 array peptide, core residues 33-47] | A5: 33-[…]-47 | A5: 33-[…]-47 | 
22 | VTRRRRPPPRQIKIWFQNRRMKWKK [NS5A SLN] |  |  | Localization Cytoplasmic (HEK293T cells): +++; Localization Nuclear (HEK293T cells): −
23 | MSTNPKPQRKTKRNT [A1, HCV genotype 1 array peptide, core residues 1-15] | A1: 1-[…]-15 | A1: 1-[…]-15 | 
24 | CC[C@H](C)[C@H](NC(=O)[C@H](CCCCN)NC(=O)[C@@H](NC(=O)[C@H](CCC(N)=O)NC(=O)[C@H](CCCNC(=N)N)NC(=O)CNC(=O)[C@H](Cc1c[nH]c2ccccc12)NC(=O)[C@@H](NC(=O)[C@@H](NC(=O)[C@@H](NC(=O)[C@H](CCCCN)NC(=O)[C@H](CCCCN)NC(=O)[C@H](CCC(=O)O)NC(=O)[C@H](CCSC)NC(=O)[C@@H]1CCCN1C(=O)[C@H](CO)NC(=O)[C@H](Cc1ccccc1)NC(=O)[C@@H](NC(=O)[C@@H](NC(=O)[C@@H]1CCCN1)[C@@H](C)CC)[C@@H](C)CC)C(C)C)[C@@H](C)CC)C(C)C)[C@@H](C)CC)C(=O)N[C@@H](Cc1c[nH]c2ccccc12)C(=O)N[C@@H](Cc1ccccc1)C(=O)N[C@@H](CCC(N)=O)C(=O)N[C@@H](CC(N)=O)C(=O)N[C@@H](CCCNC(=N)N)C(=O)N[C@@H](CCCNC(=N)N)C(=O)N[C@@H](CCSC)C(=O)N[C@@H](CCCCN)C(=O)N[C@@H](Cc1c[nH]c2ccccc12)C(=O)N[C@@H](CCCCN)C(=O)N[C@@H](CCCCN)C(=O)O [NS2 NLS] |  |  | Kd (IPOA5): 79.3 ± 3.89 nM
25 | PIIFSPMEKKVIVWG [F3] |  | F3: 977-[…]-991 | 
26 | LPGFPFSIFLLALLS [A22, HCV genotype 1 array peptide, core residues 169-183] |  |  | Binding to XPO1 (XPO1 (CRM1)): A22: 169-[…]-183

From paper PMC4259358, “Functional Characterization of Nuclear Localization and Export Signals in Hepatitis C Virus Proteins and Their Role in the Membranous Web” (PLoS ONE, 2014)
